According to BindingDB's records for doi:10.1021/jm500308c (University Jena, 2014):
Each block holds one compound with its values, some of them ahead of it.

What was measured:
[1] = target: Signal transducer and activator of transcription 3 (Homo sapiens, UniProt P40763); experiment: Inhibition of STAT3 transcriptional activity in human HaCaT cells after 6 hrs by luciferase reporter gene assay
[2] = target: T1, Nuclear factor erythroid 2-related factor 2 (Homo sapiens, UniProt Q16236); experiment: Activation of Nrf2 transcriptional activity in human LNCaP cells after 6 hrs by luciferase reporter gene assay relative to tert-butylhydroquinone
T1 sequence (Q16236 whole entry): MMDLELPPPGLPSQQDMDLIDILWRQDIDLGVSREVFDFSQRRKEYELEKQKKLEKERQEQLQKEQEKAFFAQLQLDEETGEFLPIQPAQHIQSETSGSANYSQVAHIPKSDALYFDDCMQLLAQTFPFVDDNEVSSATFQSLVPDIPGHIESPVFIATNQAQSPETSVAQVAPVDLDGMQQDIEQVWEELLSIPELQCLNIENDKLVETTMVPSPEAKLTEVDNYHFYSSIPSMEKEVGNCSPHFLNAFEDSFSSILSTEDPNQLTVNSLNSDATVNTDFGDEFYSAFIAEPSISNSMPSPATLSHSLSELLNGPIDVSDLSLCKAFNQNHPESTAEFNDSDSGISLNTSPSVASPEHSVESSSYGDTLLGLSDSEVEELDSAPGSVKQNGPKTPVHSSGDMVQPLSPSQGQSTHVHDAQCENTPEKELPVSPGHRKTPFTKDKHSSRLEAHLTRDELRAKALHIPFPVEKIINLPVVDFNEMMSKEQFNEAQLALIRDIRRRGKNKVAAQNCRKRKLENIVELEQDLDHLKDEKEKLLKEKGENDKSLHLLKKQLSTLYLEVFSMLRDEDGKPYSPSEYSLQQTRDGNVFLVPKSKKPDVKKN

Signal transducer and activator of transcription 3, sequence (P40763 whole entry): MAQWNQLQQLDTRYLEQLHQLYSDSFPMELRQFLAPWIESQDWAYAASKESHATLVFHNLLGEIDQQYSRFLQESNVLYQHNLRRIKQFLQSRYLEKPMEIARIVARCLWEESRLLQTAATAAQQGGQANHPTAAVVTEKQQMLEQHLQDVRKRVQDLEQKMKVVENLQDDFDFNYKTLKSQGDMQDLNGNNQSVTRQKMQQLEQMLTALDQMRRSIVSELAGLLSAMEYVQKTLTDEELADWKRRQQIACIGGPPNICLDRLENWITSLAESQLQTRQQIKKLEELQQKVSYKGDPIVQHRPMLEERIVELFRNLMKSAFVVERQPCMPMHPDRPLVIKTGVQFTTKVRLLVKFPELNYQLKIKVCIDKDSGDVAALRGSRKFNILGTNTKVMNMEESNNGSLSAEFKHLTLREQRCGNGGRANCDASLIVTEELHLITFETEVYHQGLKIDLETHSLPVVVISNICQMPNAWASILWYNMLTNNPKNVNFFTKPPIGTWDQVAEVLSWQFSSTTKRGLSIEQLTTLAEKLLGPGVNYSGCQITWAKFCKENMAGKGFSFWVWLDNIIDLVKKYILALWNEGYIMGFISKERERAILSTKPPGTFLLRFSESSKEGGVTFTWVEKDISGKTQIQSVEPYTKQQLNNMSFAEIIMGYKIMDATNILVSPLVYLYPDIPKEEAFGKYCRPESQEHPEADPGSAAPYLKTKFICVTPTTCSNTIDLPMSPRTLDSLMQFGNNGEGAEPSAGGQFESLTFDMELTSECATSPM

Structure (SMILES): COc1cc(/C=C/c2cc(/C=C/c3cc(CC=C(C)C)c(O)c(OC)c3)[nH]n2)cc(CC=C(C)C)c1O
- IC50 [1]: > 50 µM

Structure (SMILES): COc1cc(C=CC(=O)CC(=O)C=Cc2ccc(O)c(OC)c2)ccc1O
- EC50 [2]: 9.9 µM

Structure (SMILES): COc1cc(/C=C/C(=O)CC(=O)/C=C/c2cc(F)c(O)c(OC)c2)cc(F)c1O
- EC50 [2]: 8.6 µM
- IC50 [1]: 15.6 µM

Structure (SMILES): COc1cc(/C=C/c2cc(/C=C/c3ccc(O)c(OC)c3)[nH]n2)ccc1O [4-(2-(5-(4-hydroxy-3-methoxystyryl)-1H-pyrazol-3-yl)vinyl)-2-methoxyphenol]
- IC50 [1]: 16.2 µM

Structure (SMILES): COc1cc(/C=C/C(=O)CC(=O)/C=C/c2cc(CC=C(C)C)c(O)c(OC)c2)cc(CC=C(C)C)c1O
- IC50 [1]: > 50 µM

Structure (SMILES): COc1cc(/C=C/c2cc(-c3ccc(O)c(OC)c3)[nH]n2)ccc1O
- IC50 [1]: 18.2 µM

Continued, values first:

- IC50 [1]: > 50 µM
Structure (SMILES): COc1cc(CCC(=O)CC(=O)CCc2cc(CCC(C)C)c(O)c(OC)c2)cc(CCC(C)C)c1O

- IC50 [1]: 35.7 µM
Structure (SMILES): COc1cc(/C=C/C(=O)CC(=O)c2ccc(O)c(OC)c2)ccc1O

- EC50 [2]: 0.9 µM
- IC50 [1]: 6 µM
Structure (SMILES): COc1cc(/C=C/C(=O)/C=C/c2ccc(O)c(OC)c2)ccc1O [(1E,4E)-1,5-Bis-(4-hydroxy-3-methoxy-phenyl)-penta-1,4-dien-3-one]

- EC50 [2]: 3.1 µM
- IC50 [1]: 19.4 µM
Structure (SMILES): COc1cc(/C=C/C(=O)/C=C/c2cc(F)c(O)c(OC)c2)cc(F)c1O

- IC50 [1]: 22.4 µM
Structure (SMILES): COc1cc(/C=C/C(=O)/C=C/c2cc(CC=C(C)C)c(O)c(OC)c2)cc(CC=C(C)C)c1O

- IC50 [1]: > 50 µM
Structure (SMILES): COc1cc(CCC(=O)CC(=O)CCc2ccc(O)c(OC)c2)ccc1O [1,7-Bis-(4-hydroxy-3-methoxy-phenyl)-heptane-3,5-dione]
